Experimental data reported in PubChem BioAssay AID248 (DTP/NCI, 2004).
Values joined by “and” are separate entries in the source; they are usually repeats but may differ in a detail not shown here. Identical values can stand only once. Toxic doses and inconclusive results are not listed.

Tested on: L1210 leukemia ip in BDF1 mice, survival T/C
Assay: NCI In Vivo Anticancer Drug Screen. Data for tumor model L1210 Leukemia (intraperitoneal) in B6D2F1 (BDF1) mice
Conditions: endpoint: mean survival time, higher = longer survival
Method in brief: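 In this screen, tumor-bearing mice given compound are compared to those given vehicle, and their survival values are reported as a treated-to-control quotient.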

[1] = dose: 5.0 mg/kg/injection, schedule: Q01DX001 (ip), vehicle: saline
[2] = dose: 10.0 mg/kg/injection, schedule: Q01DX001 (ip), vehicle: saline
[3] = dose: 20.0 mg/kg/injection, schedule: Q01DX001 (ip), vehicle: saline
[4] = dose: 40.0 mg/kg/injection, schedule: Q01DX001 (ip), vehicle: saline
[5] = dose: 200.0 mg/kg/injection, schedule: Q01DX009 (ip), vehicle: saline with Tween-80
[6] = dose: 100.0 mg/kg/injection, schedule: Q01DX001 (ip), vehicle: carboxymethylcellulose (CMC)
[7] = dose: 200.0 mg/kg/injection, schedule: Q01DX001 (ip), vehicle: carboxymethylcellulose (CMC)
[8] = dose: 400.0 mg/kg/injection, schedule: Q01DX001 (ip), vehicle: carboxymethylcellulose (CMC)
[9] = dose: 50.0 mg/kg/injection, schedule: Q01DX009 (ip), vehicle: saline with Tween-80
[10] = dose: 100.0 mg/kg/injection, schedule: Q04DX003 (ip), vehicle: saline with Tween-80
[11] = dose: 200.0 mg/kg/injection, schedule: Q04DX003 (ip), vehicle: saline with Tween-80

For CC1(C)N=C(N)N=C(N)N1c1cccc(OCCOc2cccc([N+](=O)[O-])c2)c1, the T/C [1] was 105 % of control, the T/C [2] was 102 % of control and the T/C [3] was 103 % of control. The T/C [4] was 100 % of control and the T/C (dose: 80.0 mg/kg/injection, schedule: Q01DX001 (ip), vehicle: saline) was 100 % of control.

In the case of COC(OC)C1C=CC=CC=C1, the T/C [5] is reported as 95 % of control.

In the case of Oc1ccccc1/C=N/Sc1ccccc1.Oc1ccccc1/C=N/Sc1ccccc1.[Cl][Pd][Cl], the T/C (dose: 12.5 mg/kg/injection, schedule: Q04DX002 (ip), vehicle: Klucel (hydroxypropylcellulose) (HPC)) is reported as 90 % of control, the T/C (dose: 25.0 mg/kg/injection, schedule: Q04DX002 (ip), vehicle: Klucel (hydroxypropylcellulose) (HPC)) is reported as 101 % of control and the T/C (dose: 50.0 mg/kg/injection, schedule: Q04DX002 (ip), vehicle: Klucel (hydroxypropylcellulose) (HPC)) is reported as 111 % of control.

With Cc1ccc(NC(=S)N(CCC#N)Cc2ccccc2)cc1C the T/C [6] was 94 % of control, the T/C (dose: 100.0 mg/kg/injection, schedule: Q01DX009 (ip), vehicle: carboxymethylcellulose (CMC)) was 93 % of control and 107 % of control and the T/C (dose: 100.0 mg/kg/injection, schedule: Q04DX002 (ip), vehicle: carboxymethylcellulose (CMC)) was 98 % of control. For the same molecule, the T/C (dose: 100.0 mg/kg/injection, schedule: Q04DX003 (ip), vehicle: carboxymethylcellulose (CMC)) was 90 % of control, the T/C [7] was 100 % of control and the T/C (dose: 200.0 mg/kg/injection, schedule: Q01DX009 (ip), vehicle: carboxymethylcellulose (CMC)) was 89 % of control and 91 % of control. The T/C (dose: 200.0 mg/kg/injection, schedule: Q04DX002 (ip), vehicle: carboxymethylcellulose (CMC)) was 101 % of control and 88 % of control, the T/C (dose: 200.0 mg/kg/injection, schedule: Q04DX003 (ip), vehicle: carboxymethylcellulose (CMC)) was 95 % of control and the T/C [8] was 90 % of control. The T/C (dose: 400.0 mg/kg/injection, schedule: Q01DX009 (ip), vehicle: carboxymethylcellulose (CMC)) was 86 % of control, the T/C (dose: 400.0 mg/kg/injection, schedule: Q04DX002 (ip), vehicle: carboxymethylcellulose (CMC)) was 95 % of control and 88 % of control and the T/C (dose: 400.0 mg/kg/injection, schedule: Q04DX003 (ip), vehicle: carboxymethylcellulose (CMC)) was 90 % of control.

For O=C(O)c1ccc(C(Cl)C(Cl)(Cl)Cl)cc1O (stereo unspecified), the T/C [6] was 92 % of control, the T/C [7] was 94 % of control and the T/C [8] was 96 % of control.

Cc1ccc2c(ccc3nnc(C)n32)c1 was tested, and the T/C (dose: 50.0 mg/kg/injection, schedule: Q01DX001 (ip), vehicle: saline) was 109 % of control and the T/C (dose: 100.0 mg/kg/injection, schedule: Q01DX001 (ip), vehicle: saline) was 103 % of control.

In the case of O=C(Nc1ccc(F)cc1)Nc1ccc(Cl)cc1[N+](=O)[O-], the T/C [9] is reported as 94 % of control and 95 % of control, the T/C (dose: 100.0 mg/kg/injection, schedule: Q01DX001 (ip), vehicle: saline with Tween-80) is reported as 100 % of control and the T/C (dose: 100.0 mg/kg/injection, schedule: Q04DX002 (ip), vehicle: saline with Tween-80) is reported as 102 % of control and 92 % of control. The T/C [10] was 100 % of control, the T/C (dose: 200.0 mg/kg/injection, schedule: Q01DX001 (ip), vehicle: saline with Tween-80) was 95 % of control and the T/C (dose: 200.0 mg/kg/injection, schedule: Q04DX002 (ip), vehicle: saline with Tween-80) was 95 % of control and 101 % of control. For the same molecule, the T/C [11] was 97 % of control, the T/C (dose: 400.0 mg/kg/injection, schedule: Q01DX001 (ip), vehicle: saline with Tween-80) was 92 % of control and the T/C (dose: 400.0 mg/kg/injection, schedule: Q04DX002 (ip), vehicle: saline with Tween-80) was 93 % of control and 98 % of control. For the same molecule, the T/C (dose: 400.0 mg/kg/injection, schedule: Q04DX003 (ip), vehicle: saline with Tween-80) was 94 % of control.

In the case of O=C(O)C(O)C(O)C(=O)O.[Cu+2] (stereo unspecified), the T/C [1] is reported as 95 % of control, the T/C [2] is reported as 89 % of control and the T/C [3] is reported as 93 % of control. For the same molecule, the T/C [4] was 101 % of control.

S=C(Nc1ccccn1)Nc1ccccn1 was tested, and the T/C [9] was 96 % of control, the T/C (dose: 50.0 mg/kg/injection, schedule: Q04DX003 (ip), vehicle: Klucel (hydroxypropylcellulose) (HPC)) was 94 % of control and the T/C (dose: 50.0 mg/kg/injection, schedule: Q04DX003 (ip), vehicle: saline with Tween-80) was 96 % of control. For the same molecule, the T/C [6] was 95 % of control, the T/C (dose: 100.0 mg/kg/injection, schedule: Q01DX009 (ip), vehicle: saline with Tween-80) was 103 % of control and the T/C [10] was 101 % of control. For the same molecule, the T/C [7] was 95 % of control, the T/C [5] was 96 % of control and the T/C (dose: 200.0 mg/kg/injection, schedule: Q04DX003 (ip), vehicle: Klucel (hydroxypropylcellulose) (HPC)) was 87 % of control. For the same molecule, the T/C [11] was 184 % of control and the T/C [8] was 92 % of control.
